Results on eleven compounds are retold here after ChEMBL document CHEMBL1201862, “PubChem BioAssay data set” (2004).

Each structure is given as a SMILES string.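 1) Cells in 96-well plates. 2) Compound, 48 h, 5 concentrations. 3) Linear interpolation between surrounding doses. 4) Unreached endpoint = highest concentration. Here, GI50 denotes the concentration required for 50% inhibition of growth.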 Calls of active or inactive are those of the source. Rule as the data show it: active = GI50 up to about 1.1 µM and inactive = higher. A value given as a limit tells only on which side of the number the result lay.

Holding throughout (assay): inhibition of tumour cell growth, NCI panel, 48 h
The test system of assay [1] is ACHN.
In assay [2] the test system is CAKI-1.
The test system of assay [3] is HCT-116.
For assay [4], the system named is HCT-15.
Assay [5] relates to IGROV-1.
Assay [6] has as its system KM12.
The subject of assay [7] is LOX IMVI.
Assay [8] relates to MDA-N.
Assay [9] relates to NCI-H23.
For assay [10], the system named is OVCAR-8.
Assay [11] deals with SF-268.
Assay [12] concerns SK-MEL-28.
In assay [13] the test system is SK-MEL-5.
Assay [14] has as its system SNB-19.
Assay [15] has as its system SW-620.
The subject of assay [16] is T47D.
Assay [17] concerns UO-31.
Assay [18] relates to MOLT-4.
For assay [19], the system named is RXF 393.
The subject of assay [20] is SNB-75.

As for `CNc1ncnc2c1cnn2Cc1cn(COCC(O)CO)nn1` (stereo not drawn), the GI50 in assay [1] was > 100 µM (inactive); in assay [2] it was > 100 µM (inactive); in assay [3], > 100 µM (inactive); in assay [4], > 100 µM; in assay [5] it was > 100 µM (inactive); in [6] it was > 100 µM (inactive). Further, the GI50 in assay [7] is > 100 µM (inactive); in assay [8] it was > 100 µM (inactive); in [9] it was > 100 µM (inactive); in [10], > 100 µM (inactive); in assay [11], 4.97 µM (inactive); in assay [12], > 100 µM (inactive). In addition, the GI50 in [13], in assay [14], in assay [15], in [16] and in assay [17] was > 100 µM (inactive) each time.

Regarding `c1ccc2c(c1)CCc1c-2n(CCN2CCOCC2)c2ccccc12`, the GI50 in assay [1] was > 100 µM (inactive); in assay [2] it was 22.1 µM (inactive); in assay [3], > 100 µM (inactive); in [4], > 100 µM; in assay [5] it was 11.7 µM (inactive); in assay [6], 13.5 µM (inactive). Moreover, the GI50 in assay [7] was > 100 µM (inactive); in assay [8], > 100 µM (inactive); in assay [18] it was 29.9 µM (inactive); in assay [9], > 100 µM (inactive); in assay [10], > 100 µM (inactive); in [11] it was > 100 µM (inactive). The GI50 is 34.6 µM (inactive) in assay [12]; 18.8 µM (inactive) in [13]; > 100 µM (inactive) in assay [14]; > 100 µM (inactive) in [15]; > 100 µM (inactive) in assay [16]; > 100 µM (inactive) in assay [17].

Take `CC(=O)NC(Cc1ccc(O)cc1)C(=O)O` (stereo not drawn): the GI50 in assay [1] is > 100 µM (inactive); in [2], > 100 µM (inactive); in [3] it was > 100 µM (inactive); in assay [4] it was > 100 µM; in assay [5] it was > 100 µM (inactive); in assay [6], > 100 µM (inactive). Besides, the GI50 in assay [7], in assay [8], in assay [18], in [9], in [10] and in assay [19] was > 100 µM (inactive) each time. The GI50 in assay [11], in [12], in assay [13], in assay [14], in [15] and in [16] was > 100 µM (inactive) in each case. The GI50 in [17] was > 100 µM (inactive).

On to `c1ccc2c[n+](Cc3ccnc4ccccc34)ccc2c1`, for which the GI50 in assay [1] is > 100 µM (inactive); in [2], > 100 µM (inactive); in assay [3] it was > 100 µM (inactive); in assay [4], > 100 µM; in [5], > 100 µM (inactive); in assay [6], > 100 µM (inactive). Also, the GI50 in assay [7], in assay [8], in [18], in [9], in [10] and in assay [19] was > 100 µM (inactive) throughout. Further, the GI50 in assay [11] is > 100 µM (inactive); in [12] it was > 100 µM (inactive); in [13], 42.8 µM (inactive); in [14], > 100 µM (inactive); in [15], > 100 µM (inactive); in assay [16], > 100 µM (inactive). In addition, the GI50 in [17] is > 100 µM (inactive).

Consider `CC1CN(c2cc3c(cc2F)c(=O)c(C(=O)O)cn3-c2ccc(N3CCN(C)CC3)cn2)CC(C)N1` (stereo not drawn), for which the GI50 in assay [2] was > 100 µM (inactive); in assay [3], > 100 µM (inactive); in assay [4], > 100 µM; in assay [5] it was > 100 µM (inactive); in assay [6] it was 87.5 µM (inactive); in assay [8], > 100 µM (inactive). The GI50 in assay [18] is 99.5 µM (inactive); in assay [9] it was > 100 µM (inactive); in [10], 44.5 µM (inactive); in [19] it was > 100 µM (inactive); in assay [11], > 100 µM (inactive); in [12], > 100 µM (inactive). Also, the GI50 is 70 µM (inactive) in [14]; > 100 µM (inactive) in assay [20]; 98.4 µM (inactive) in assay [15]; > 100 µM (inactive) in [16]; > 100 µM (inactive) in [17].

Regarding `O=C1c2ccccc2-c2nnc3c(c21)-c1ccccc1C3`, the GI50 was 27.5 µM (inactive) in assay [1]; 65.6 µM (inactive) in assay [2]; 64 µM (inactive) in [3]; 39.4 µM in [4]; > 100 µM (inactive) in assay [6]; > 100 µM (inactive) in assay [8]. Besides, the GI50 in [18] is 24.5 µM (inactive); in [9], > 100 µM (inactive); in assay [10], 44.2 µM (inactive); in [19], > 100 µM (inactive); in [11], > 100 µM (inactive); in assay [13] it was 66.8 µM (inactive). The GI50 was 39 µM (inactive) in assay [14]; 76 µM (inactive) in assay [20]; 53.2 µM (inactive) in assay [15]; > 100 µM (inactive) in assay [16]; 23.2 µM (inactive) in [17].

As to `O=[N+]([O-])/C(C(Cl)=C(Cl)Cl)=C(\Nc1ccccc1)n1nnc2ccccc21`, the GI50 in [1] was > 100 µM (inactive); in assay [2], > 100 µM (inactive); in assay [3], 65.3 µM (inactive); in assay [4], > 100 µM; in assay [6], 20.5 µM (inactive); in assay [7] it was 17.4 µM (inactive). Further, the GI50 in assay [8] was 54.8 µM (inactive); in assay [18] it was 35.5 µM (inactive); in assay [9] it was 25.9 µM (inactive); in [10] it was > 100 µM (inactive); in [11] it was 19.8 µM (inactive); in assay [12] it was 32.7 µM (inactive). Also, the GI50 was 41.7 µM (inactive) in [14]; > 100 µM (inactive) in [20]; 32.2 µM (inactive) in [15]; > 100 µM (inactive) in [16]; 21.9 µM (inactive) in assay [17].

As to `O=C1/C(=C2\Sc3c(ccc(Cl)c3Cl)C2=O)Sc2c1ccc(Cl)c2Cl`, the GI50 in [1] was > 100 µM (inactive); in [2], > 100 µM (inactive); in [3], > 100 µM (inactive); in [4], > 100 µM; in [5], > 100 µM (inactive); in assay [6] it was > 100 µM (inactive). Moreover, the GI50 was > 100 µM (inactive) in assay [8]; > 100 µM (inactive) in assay [18]; > 100 µM (inactive) in assay [9]; > 100 µM (inactive) in assay [10]; 89.1 µM (inactive) in [19]; > 100 µM (inactive) in [11]. Further, the GI50 in assay [12] was > 100 µM (inactive); in [13], > 100 µM (inactive); in assay [14] it was > 100 µM (inactive); in assay [20], 20.3 µM (inactive); in assay [15] it was > 100 µM (inactive); in [16], > 100 µM (inactive). The GI50 in [17] is > 100 µM (inactive).

On to `Cc1ccc(S(=O)(=O)NNC(=S)Nc2cccc3ccccc23)cc1`, for which the GI50 in [1] was 29.9 µM (inactive); in assay [2], 55.7 µM (inactive); in [3] it was 55.2 µM (inactive); in assay [4], 67.5 µM; in assay [5], 61.5 µM (inactive); in assay [6] it was 23.4 µM (inactive). For the same compound, the GI50 in assay [8] is 55.3 µM (inactive); in assay [18], 38.1 µM (inactive); in assay [9] it was 32.3 µM (inactive); in [10], 37.5 µM (inactive); in assay [19] it was 85.9 µM (inactive); in [11], 70.6 µM (inactive). In addition, the GI50 in assay [12] was 54.1 µM (inactive); in [13], 17.8 µM (inactive); in [14], 68.1 µM (inactive); in assay [20], 27.9 µM (inactive); in assay [15], > 100 µM (inactive); in [16], 39.5 µM (inactive). Further, the GI50 in [17] is 43.4 µM (inactive).

For the compound `COc1cc(C=C2C(C)=NN(c3cccc(Cl)c3)C23SCC(=O)N3c2nc3ccccc3s2)ccc1O` (stereo not drawn), the GI50 in assay [1] was 26.1 µM (inactive); in [2] it was 29.6 µM (inactive); in assay [3], 24.7 µM (inactive); in assay [4] it was 30.4 µM; in assay [5] it was 29.4 µM (inactive); in [6] it was 30.8 µM (inactive). Moreover, the GI50 was 27.5 µM (inactive) in assay [7]; 31.5 µM (inactive) in assay [8]; 15.8 µM (inactive) in assay [18]; 30.1 µM (inactive) in [9]; 20.1 µM (inactive) in assay [10]; 29.2 µM (inactive) in assay [19]. Moreover, the GI50 in [11] was 23.2 µM (inactive); in [12], 33 µM (inactive); in [13], 18.2 µM (inactive); in [14], 31.8 µM (inactive); in [15] it was 27.3 µM (inactive); in assay [16], 33.3 µM (inactive). Further, in assay [17], the GI50 was 30.6 µM (inactive).

On to `O=C1CCCCC/C1=C\c1ccc([N+](=O)[O-])cc1`, for which the GI50 in assay [1] was 21.5 µM (inactive); in assay [2], 22.7 µM (inactive); in assay [3] it was 22.7 µM (inactive); in [5], 16.3 µM (inactive); in [6], 19.8 µM (inactive); in assay [8], 42.4 µM (inactive). Moreover, the GI50 in assay [18] is 41.7 µM (inactive); in assay [10], 38.8 µM (inactive); in assay [19], 33.4 µM (inactive); in assay [11], 30.5 µM (inactive); in assay [12], 65 µM (inactive); in assay [13], 20.1 µM (inactive). Further, the GI50 in assay [14] is 29.4 µM (inactive); in [20], 29.7 µM (inactive); in assay [15] it was 39.9 µM (inactive); in assay [16], 31.5 µM (inactive); in assay [17], 24.5 µM (inactive).
